We go through 4 compounds from ChEMBL document CHEMBL6109142 (J Med Chem, 2025).

The structures appear in SMILES notation. Calls of active or inactive are those of the source. No cut-off for these calls is given here.

The test system of this assay is SARS-CoV-2. Put plainly: Antiviral activity against SARS-CoV-2 pseudotyped with delta spike protein infected in HEK293T cells harbouring hACE2 assessed as decrease in virus-like particle cellular entry at 10 uM preincubated with cells for 3 hrs followed by viral infection and measured after 72 hrs by ONE-Glo-Ex luciferase assay. The following applies: Severe acute respiratory syndrome coronavirus 2, time 75.0 hrs. The class given is functional, organism-based.
For the compound `CS(=O)(=O)N[C@@H](CCC(N)=O)C(=O)N[C@@H](Cc1ccccc1)C(=O)N[C@@H](CCCNC(=N)N)C(=O)c1nc2ccccc2s1`, the result was inactive.
Turning to `CN(C)C(=O)COC(=O)Cc1ccc(OC(=O)c2ccc(NC(=N)N)cc2)cc1` [CAMOSTAT], the outcome was inactive.
As to `N=C(N)NCCC[C@H](NC(=O)[C@H](Cc1ccccc1)NC(=O)[C@H](CCC(N)=O)NC(=O)OCc1ccccc1)C(=O)c1nccs1`, the result was inactive.
Regarding `CCOC(=O)[C@H]1O[C@@H]1C(=O)N[C@@H](CC(C)C)C(=O)NCCC(C)C`, the outcome was Active.
